Data from patent US11098040B2, “Compounds and methods of use” (Ferro Therapeutics, Inc., priority 2018, dated 2021).
Like-named read-outs stand apart in the source and are kept apart here.

Experiments:
MiaPaCa-2 = test: Cell viability assay (CellTiter Glo), pancreatic carcinoma MiaPaCa-2; format: cell-based; conditions: Homo sapiens
Method: (§1) Cell viability assay was performed to assess the potency of the compounds in human cancer cell lines KP4 (pancreatic ductal adenocarcinoma), MiaPaCa-2 (pancreatic carcinoma), AsPC-1 (pancreatic adenocarcinoma, ascites), 143B (osteosarcoma), and SJSA-1 (osteosarcoma). Selected compounds were also assayed in a human breast epithelial cell line MCF-10A, a nontumorigenic cell line as a control to assess differential activity. Cells at a density of 500-5,000 cells/well were seeded in 96-well plates and incubated at 37° C. overnight. A series of 9 different concentrations of compound stocks (500×) were created by 3-fold serial dilution in DMSO. These compounds were further diluted in culture media and then added to cells so that the final DMSO concentration was equal to 0.25% or less. After 96 hours of incubation, 50 μL of CellTiter Glo reagent (Promega) was added to each well and luminescence was measured after 10 minutes using EnVision (PerkinElmer). Compounds titrated from top concentration of up to 30 μM. The select compounds were tested initially from 30 μM as the top concentration in duplicates (range of 4.6 nM-30 μM). […] Luminescence from cells treated with DMSO alone was set as Max and % of inhibition was calculated as follows: Inhibition %=(Max-Sample value)/Max*100. Data was analyzed using XL-fit software (ID Business Solutions Ltd.). IC50, relative IC50, or % of top inhibition was calculated.
The results of the assay in the pancreatic cell lines are given in Table 15a for PANC1, Table 15b for MiaPaCa-2, and Table 15c for AsPC-1.

MCF-10A = test: Cell viability assay (CellTiter Glo), non-tumorigenic breast epithelial cell line MCF-10A; format: cell-based; conditions: Homo sapiens, 96 hours
Method: as §1
Paclitaxel was used as the positive control for cytotoxicity.

A549 = test: Cell viability assay, A549 cells; format: cell-based; conditions: Homo sapiens, A549, A549, read-out: IC50 for A549
Method: Example 5: Inducer Compound Effect on Growth of A549 and KP4 Cells
as §1, with “in” for “in human”, “line” for “lines”, “adenocarcinoma).” for “adenocarcinoma), MiaPaCa-2 (pancreatic carcinoma), AsPC-1 (pancreatic adenocarcinoma, ascites), 143B (osteosarcoma), and SJSA-1 (osteosarcoma). Selected compounds were also assayed in a human breast epithelial cell line MCF-10A, a nontumorigenic cell line as a control to assess differential activity.”, “1,000-10,000” for “500-5,000”, “All” for “Compounds titrated from top concentration of up to 30 μM. The select”, “calculated. […]” for “calculated.”

KP4 = test: Cell viability assay (CellTiter Glo), pancreatic ductal adenocarcinoma KP4; format: cell-based, human; conditions: Homo sapiens, KP-4, Cell Line KP4; read-out: IC50
Procedure, shortened: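 KP4 cells seeded at 1,000–10,000 per well, treated 96 h with 9-point 3-fold dilutions from 30 μM top (4.6 nM–30 μM, duplicates; ≤0.25% DMSO). Viability by CellTiter Glo luminescence; % inhibition relative to DMSO-only wells, giving IC50, relative IC50 or % top inhibition.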

[1] = MIA PaCa-2, pancreatic carcinoma, 96 hours, CellTiter Glo, read-out: IC50 MiaPaCa-2

IC50 (MiaPaCa-2; [1])	Compound	IC50 (MCF-10A)	further results
243 nM	COCCN(C(=O)c1ccc([C@H]2c3[nH]c4ccccc4c3C[C@H](C(=O)N(C)C)N2C(=O)CCl)cc1)C(C)(C)C [Example 52]	180 nM	IC50 (A549): 280 to 360 nM
217 nM	CN(C)C(=O)[C@H]1Cc2c([nH]c3ccccc23)[C@H](c2ccc(C(=O)N(CCC(=O)OC(C)(C)C)C(C)(C)C)cc2)N1C(=O)CCl [Example 54]	560 nM	IC50 (A549; unit printed as PM): 790 nM
759 nM	CN(C)C(=O)[C@H]1Cc2c([nH]c3ccccc23)[C@H](c2ccc(NC(=O)OC(C)(C)C)cc2)N1C(=O)CCl [Example 56]	1510 nM	
591 nM	CN(C)C(=O)[C@H]1Cc2c([nH]c3ccccc23)[C@H](c2ccc(S(C)(=O)=O)cc2)N1C(=O)CCl [Example 59]	8780 nM	
	COC(=O)[C@H]1Cc2c([nH]c3ccccc23)[C@H](c2ccc(C(=O)OCC3(C)CC3)cc2)N1C(=O)CCl [Example 84]	480 nM	
	COC(=O)[C@H]1Cc2c([nH]c3ccccc23)[C@H](c2ccc(C(=O)OCC3CCCCC3)cc2)N1C(=O)CCl [Example 89]	420 nM	
246 nM	COC(=O)[C@H]1Cc2c([nH]c3ccccc23)[C@H](c2ccc(O)cc2)N1C(=O)CCl [Example 265]		IC50 (MiaPaCa-2; Cell Line Mia PaCa-2, read-out: IC50): 260 nM; IC50 (KP4): 160 nM
	CC(=O)O[C@H]1C(=O)[C@@]2(C)[C@H]([C@H](OC(=O)c3ccccc3)[C@]3(O)C[C@H](OC(=O)[C@H](O)[C@@H](NC(=O)c4ccccc4)c4ccccc4)C(C)=C1C3(C)C)[C@]1(OC(C)=O)CO[C@@H]1C[C@@H]2O [paclitaxel, Paclitaxel, reference compound]	1 nM	

Compound	IC50 (MiaPaCa-2; [1])	IC50 (MCF-10A)	further results
CN(C)C(=O)[C@H]1Cc2c([nH]c3ccccc23)[C@H](c2ccc(C(=O)NC[Si](C)(C)C)cc2)N1C(=O)CCl [Example 66]	159 nM		
CN(C)C(=O)[C@H]1Cc2c([nH]c3ccccc23)[C@@H](c2ccc([Si](C)(C)C)cc2)N1C(=O)CCl [Example 67a]	1360 nM		
